Measured values: US12538924B2, “Pesticidally active heterocyclic derivatives with sulfur containing substituents” (SYNGENTA CROP PROTECTION AG, priority 2019, dated 2026)

Assays:
Format in all cases: in vivo
[1] = system: Euschistus heros (Neotropical Brown Stink Bug); test: Euschistus heros (Neotropical Brown Stink Bug), sprayed soybean leaves; conditions: 120 h, application rate of 200 ppm, N2 nymphs on sprayed soybean leaves, 5 days after infestation, read-out: effect in at least one of the two categories (mortality or growth inhibition)
Experimental: Example B3: Euschistus heros (Neotropical Brown Stink Bug)
Soybean leaves on agar in 24-well microtiter plates were sprayed with aqueous test solutions prepared from 10'000 ppm DMSO stock solutions. After drying the leaves were infested with N2 nymphs. The samples were assessed for mortality and growth inhibition in comparison to untreated samples 5 days after infestation.

[2] = system: Myzus persicae (Green Peach Aphid); test: Myzus persicae (Green Peach Aphid): Systemic Activity; conditions: 144 h, test rate of 24 ppm, roots of infested pea seedlings placed into test solutions, 6 days
Experimental: Example B7: Myzus persicae (Green Peach Aphid): Systemic Activity
Roots of pea seedlings infested with an aphid population of mixed ages were placed directly into aqueous test solutions prepared from 10'000 DMSO stock solutions. The samples were assessed for mortality 6 days after placing seedlings into test solutions.

[3] = system: Nilaparvata lugens (Brown Plant Hopper); test: Nilaparvata lugens (Brown Plant Hopper): Larvicide, Systemic into Water; conditions: 168 h, test rate of 12.5 ppm, rice plants in nutritive solution, N3 nymphs, 7 days after infestation
Experimental: Example B12: Nilaparvata lugens (Brown Plant Hopper): Larvicide, Systemic into Water
Rice plants cultivated in a nutritive solution were treated with the diluted test solutions into nourishing cultivation system. 1 day after application plants were infested with ˜20 N3 nymphs. 7 days after infestation samples were assessed for mortality and growth regulation.

[4] = system: Spodoptera littoralis (Egyptian Cotton Leaf Worm); test: Spodoptera littoralis (Egyptian Cotton Leaf Worm), sprayed cotton leaf discs; conditions: foliar, 72 h, application rate of 200 ppm, L1 larvae on sprayed cotton leaf discs, 3 days after infestation, read-out: control (mortality, anti-feeding effect or growth inhibition)
Experimental: Example B8: Spodoptera littoralis (Egyptian Cotton Leaf Worm)
Cotton leaf discs were placed onto agar in 24-well microtiter plates and sprayed with aqueous test solutions prepared from 10'000 ppm DMSO stock solutions. After drying the leaf discs were infested with five L1 larvae. The samples were assessed for mortality, anti-feeding effect, and growth inhibition in comparison to untreated samples 3 days after infestation. Control of Spodoptera littoralis by a test sample is given when at least one of the categories mortality, anti-feedant effect, and growth inhibition is higher than the untreated sample.

[5] = system: Myzus persicae (Green Peach Aphid); test: Myzus persicae (Green Peach Aphid): Feeding/Contact Activity; conditions: foliar, 144 h, application rate of 200 ppm, aphid population of mixed ages on sprayed sunflower leaf discs, 6 days after infestation
Experimental: Example B6: Myzus persicae (Green Peach Aphid): Feeding/Contact Activity
Sunflower leaf discs were placed onto agar in a 24-well microtiter plate and sprayed with aqueous test solutions prepared from 10'000 ppm DMSO stock solutions. After drying, the leaf discs were infested with an aphid population of mixed ages. The samples were assessed for mortality 6 days after infestation.

[6] = system: Diabrotica Balteata (Corn Root Worm); test: Diabrotica balteata (Corn Root Worm), sprayed maize sprouts; conditions: 96 h, application rate of 200 ppm, L2 larvae on sprayed maize sprouts, 4 days after infestation, read-out: effect in at least one of the two categories (mortality or growth inhibition)
Experimental: Example B2: Diabrotica Balteata (Corn Root Worm)
Maize sprouts placed onto an agar layer in 24-well microtiter plates were treated with aqueous test solutions prepared from 10'000 ppm DMSO stock solutions by spraying. After drying, the plates were infested with L2 larvae (6 to 10 per well). The samples were assessed for mortality and growth inhibition in comparison to untreated samples 4 days after infestation.

[7] = system: Plutella xylostella (Diamond Back Moth); test: Plutella xylostella (Diamond Back Moth), treated artificial diet; conditions: 192 h, application rate of 200 ppm, eggs on treated artificial diet, 8 days after infestation, read-out: effect in at least one of the two categories (mortality or growth inhibition)
Experimental: Example B5: Plutella xylostella (Diamond Back Moth)
24-well microtiter plates with artificial diet were treated with aqueous test solutions prepared from 10'000 ppm DMSO stock solutions by pipetting. After drying, Plutella eggs were pipetted through a plastic stencil onto a gel blotting paper and the plate was closed with it. The samples were assessed for mortality and growth inhibition in comparison to untreated samples 8 days after infestation.

[8] = system: Nilaparvata lugens (Brown Plant Hopper); test: Nilaparvata lugens (Brown Plant Hopper): Larvicide, Feeding/Contact; conditions: 168 h, application rate of 50 ppm, N3 nymphs on sprayed rice plants, 7 days after the treatment
Experimental: Example B10: Nilaparvata lugens (Brown Plant Hopper): Larvicide, Feeding/Contact
Rice plants were treated with the diluted test solutions in a spray chamber. After drying plants were infested with ˜20 N3 nymphs. 7 days after the treatment samples were assessed for mortality and growth regulation.

[9] = system: Bemisia tabaci (Cotton White Fly); test: Bemisia tabaci (Cotton White Fly): Feeding/Contact Activity; conditions: foliar, 144 h, application rate of 200 ppm, adult white flies on sprayed cotton leaf discs, 6 days after incubation
Experimental: Example B1: Bemisia tabaci (Cotton White Fly): Feeding/Contact Activity
Cotton leaf discs were placed on agar in 24-well microtiter plates and sprayed with aqueous test solutions prepared from 10'000 ppm DMSO stock solutions. After drying the leaf discs were infested with adult white flies. The samples were checked for mortality 6 days after incubation.

[10] = system: Nilaparvata lugens (Brown Plant Hopper); test: Nilaparvata lugens (Brown Plant Hopper): Igr, Feeding/Contact; conditions: 360 h, application rate of 50 ppm, sprayed rice plants, N3 nymphs, assessed for effect on F1 generation 15 days after the treatment
Experimental: Example B11: Nilaparvata lugens (Brown Plant Hopper): Igr, Feeding/Contact
Rice plants were treated with the diluted test solutions in a spray chamber. After drying plants were infested with ˜20 N3 nymphs. 7 days after treatment adults were removed and 15 days after the treatment samples were assessed for effect on F1 generation.

CCS(=O)(=O)c1cccnc1N1Cc2cnc(C(F)(F)F)cc2C1=O [Compound P1, 2-(3-ethylsulfonyl-2-pyridyl)-6-(trifluoromethyl)-3H-pyrrolo[3,4-c]pyridin-1-one]
≥ 80%: percent effect (mortality or growth inhibition) at 200 ppm [1] | mortality at 24 ppm [2] | mortality at 12.5 ppm [3] | percent control (mortality, anti-feedant effect or growth inhibition) at 200 ppm [4] | mortality at 200 ppm [5] | percent effect (mortality or growth inhibition) at 200 ppm [6] | percent effect (mortality or growth inhibition) at 200 ppm [7]

CCS(=O)(=O)c1cc(C(C)(C)C#N)cnc1N1Cc2cnc(C(F)(F)F)cc2C1=O [Compound P2, 2-[5-ethylsulfonyl-6-[1-oxo-6-(trifluoromethyl)-3H-pyrrolo[3,4-c]pyridin-2-yl]-3-pyridyl]-2-methyl-propanenitrile]
≥ 80%: percent effect (mortality or growth inhibition) at 200 ppm [1] | mortality at 24 ppm [2] | mortality at 12.5 ppm [3] | percent control (mortality, anti-feedant effect or growth inhibition) at 200 ppm [4] | mortality at 200 ppm [5] | percent effect (mortality or growth inhibition) at 200 ppm [6] | mortality at 50 ppm [8] | percent effect (mortality or growth inhibition) at 200 ppm [7] | mortality at 200 ppm [9] | mortality at 50 ppm [10]

CCS(=O)(=O)c1ccc(NC)nc1N1Cc2cnc(C(F)(F)F)cc2C1=O [Compound P4, 2-[3-ethylsulfonyl-6-(methylamino)-2-pyridyl]-6-(trifluoromethyl)-3H-pyrrolo[3,4-c]pyridin-1-one]
≥ 80%: percent effect (mortality or growth inhibition) at 200 ppm [1] | mortality at 24 ppm [2] | mortality at 12.5 ppm [3] | percent control (mortality, anti-feedant effect or growth inhibition) at 200 ppm [4] | mortality at 200 ppm [5] | percent effect (mortality or growth inhibition) at 200 ppm [6] | mortality at 50 ppm [8] | percent effect (mortality or growth inhibition) at 200 ppm [7] | mortality at 50 ppm [10]

CCS(=O)(=O)c1ccc(-n2cncn2)nc1N1Cc2cnc(C(F)(F)F)cc2C1=O [Compound P5, 2-[3-ethylsulfonyl-6-(1,2,4-triazol-1-yl)-2-pyridyl]-6-(trifluoromethyl)-3H-pyrrolo[3,4-c]pyridin-1-one]
≥ 80%: percent effect (mortality or growth inhibition) at 200 ppm [1] | mortality at 24 ppm [2] | mortality at 12.5 ppm [3] | percent control (mortality, anti-feedant effect or growth inhibition) at 200 ppm [4] | mortality at 200 ppm [5] | percent effect (mortality or growth inhibition) at 200 ppm [6] | mortality at 50 ppm [8] | percent effect (mortality or growth inhibition) at 200 ppm [7] | mortality at 200 ppm [9] | mortality at 50 ppm [10]

CCS(=O)(=O)c1ccc(N(C)C(=O)NC)nc1N1Cc2cnc(C(F)(F)F)cc2C1=O [Compound P6, 1-[5-ethylsulfonyl-6-[1-oxo-6-(trifluoromethyl)-3H-pyrrolo[3,4-c]pyridin-2-yl]-2-pyridyl]-1,3-dimethyl-urea]
≥ 80%: percent effect (mortality or growth inhibition) at 200 ppm [1] | mortality at 24 ppm [2] | mortality at 12.5 ppm [3] | mortality at 200 ppm [5] | percent effect (mortality or growth inhibition) at 200 ppm [6] | mortality at 50 ppm [8] | percent effect (mortality or growth inhibition) at 200 ppm [7] | mortality at 200 ppm [9]

CCS(=O)(=O)c1cc(-n2ccc(C(F)(F)F)n2)cnc1N1Cc2cnc(C(F)(F)F)cc2C1=O [Compound P9, 2-[3-ethylsulfonyl-5-[3-(trifluoromethyl)pyrazol-1-yl]-2-pyridyl]-6-(trifluoromethyl)-3H-pyrrolo[3,4-c]pyridin-1-one]
≥ 80%: percent effect (mortality or growth inhibition) at 200 ppm [1] | mortality at 12.5 ppm [3] | percent control (mortality, anti-feedant effect or growth inhibition) at 200 ppm [4] | mortality at 200 ppm [5] | percent effect (mortality or growth inhibition) at 200 ppm [6] | percent effect (mortality or growth inhibition) at 200 ppm [7] | mortality at 200 ppm [9] | mortality at 50 ppm [10]

CCS(=O)(=O)c1cc(Oc2ccccn2)cnc1N1Cc2cnc(C(F)(F)F)cc2C1=O [Compound P12, 2-[3-ethylsulfonyl-5-(2-pyridyloxy)-2-pyridyl]-6-(trifluoromethyl)-3H-pyrrolo[3,4-c]pyridin-1-one]
≥ 80%: percent effect (mortality or growth inhibition) at 200 ppm [1] | mortality at 24 ppm [2] | mortality at 12.5 ppm [3] | percent control (mortality, anti-feedant effect or growth inhibition) at 200 ppm [4] | mortality at 200 ppm [5] | percent effect (mortality or growth inhibition) at 200 ppm [6] | percent effect (mortality or growth inhibition) at 200 ppm [7]

CCS(=O)(=O)c1cc(-n2ccc(Cl)n2)cnc1N1Cc2cnc(C(F)(F)F)cc2C1=O [Compound P13, 2-[5-(3-chloropyrazol-1-yl)-3-ethylsulfonyl-2-pyridyl]-6-(trifluoromethyl)-3H-pyrrolo[3,4-c]pyridin-1-one]
≥ 80%: percent effect (mortality or growth inhibition) at 200 ppm [1] | mortality at 12.5 ppm [3] | percent control (mortality, anti-feedant effect or growth inhibition) at 200 ppm [4] | mortality at 200 ppm [5] | percent effect (mortality or growth inhibition) at 200 ppm [6] | percent effect (mortality or growth inhibition) at 200 ppm [7] | mortality at 200 ppm [9]

CCS(=O)(=O)c1cccnc1N1Cc2ccc(S(=O)(=O)C(F)(F)F)cc2C1=O [Compound P23, 2-(3-ethylsulfonyl-2-pyridyl)-6-(trifluoromethylsulfonyl)isoindolin-1-one]
≥ 80%: percent effect (mortality or growth inhibition) at 200 ppm [1] | mortality at 24 ppm [2] | percent control (mortality, anti-feedant effect or growth inhibition) at 200 ppm [4] | mortality at 200 ppm [5] | percent effect (mortality or growth inhibition) at 200 ppm [6] | percent effect (mortality or growth inhibition) at 200 ppm [7] | mortality at 200 ppm [9]
